# Data as given in US20260061082A1, “PROSTATE-SPECIFIC MEMBRANE ANTIGEN TARGETED DEEP-TUMOR PENETRATION OF POLYMER NANODRUGS AND METHODS OF USE THEREOF” (priority 2022, published 2026).
# Values joined by “and” are separate entries in the source; they are usually repeats but may differ in a detail not shown here. Equal entries are not always repeated. Where two headings read alike, the source gives them in different places.
# Experiments:
# [1] = target: T1, PSMA (PSMA+ PC3-Pip cells) (Homo sapiens, UniProt Q04609); assay: 68Ga-PSMA-11 competition radioligand binding assay
# T1 construct: host or cells: PC3-Pip (PSMA+ subline of PC-3)
# T1 sequence (Q04609 whole entry): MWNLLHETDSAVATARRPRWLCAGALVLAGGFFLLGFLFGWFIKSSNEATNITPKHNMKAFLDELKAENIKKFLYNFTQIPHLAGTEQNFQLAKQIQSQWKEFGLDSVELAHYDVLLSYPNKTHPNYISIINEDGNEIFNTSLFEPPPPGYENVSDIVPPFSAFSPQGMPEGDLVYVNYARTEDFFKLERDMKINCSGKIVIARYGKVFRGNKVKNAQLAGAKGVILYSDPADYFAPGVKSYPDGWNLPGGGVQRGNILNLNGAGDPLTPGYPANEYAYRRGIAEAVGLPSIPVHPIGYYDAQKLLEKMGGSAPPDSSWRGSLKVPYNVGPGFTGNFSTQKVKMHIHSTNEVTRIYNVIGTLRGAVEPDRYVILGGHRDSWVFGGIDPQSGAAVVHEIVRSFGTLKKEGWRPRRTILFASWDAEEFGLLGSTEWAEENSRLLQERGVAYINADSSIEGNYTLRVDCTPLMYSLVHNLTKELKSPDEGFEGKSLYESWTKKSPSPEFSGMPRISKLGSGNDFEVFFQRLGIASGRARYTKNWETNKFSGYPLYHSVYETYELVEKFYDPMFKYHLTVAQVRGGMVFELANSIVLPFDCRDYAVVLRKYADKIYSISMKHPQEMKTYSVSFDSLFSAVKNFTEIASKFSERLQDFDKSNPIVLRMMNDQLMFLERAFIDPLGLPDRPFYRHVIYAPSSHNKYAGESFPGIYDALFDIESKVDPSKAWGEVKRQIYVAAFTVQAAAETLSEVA
# Method: Competition Radioligand Binding Assay: The nanoparticles were utilized in a ^68Ga-PSMA-11 competition radioligand binding assay to obtain the IC50 values, similar to our prior method. […] PC3-Pip cells were seeded in 96-well plates (˜20 k cells/wells) ˜24 h prior testing in RPMI1640 medium containing with 10% FBS and 1% penicillin/streptomycin. The growth medium was discarded, and the cells were washed with PBS two times. […] The treated cells were incubated for 1 h at room temperature. Then, the radioactive medium was discarded, and the cells were washed twice with PBS. The cells in each well were then treated with NaOH (5N, 250 μL) and incubated for 30 min at 37° C. for lysis. The lysate from each well was collected in vials and analyzed in a Hidex gamma counter to quantify the bound activity. IC50 was calculated by nonlinear regression analysis in Graph-Pad Prism software.
# Competition Radioligand Binding Assay: Similar to our prior reported protocol, ^68Ga-PSMA-11 was produced in a ^68Ge/^68Ga generator, and used in a competition radioligand binding assay to acquire the IC50 values for the nanocarriers. […] After 1 h incubated at room temperature, the radioactive medium was removed, and the cells were washed with PBS twice. The cells were lyzed with sodium hydroxide and the radioactivity of the lysate in each well was counted in a Hidex gamma counter. IC50 was determined by nonlinear regression analysis in Prism software (Graph-Pad).
# [2] = target: PSMA (Homo sapiens, UniProt Q04609); settings: previously reported; cited from earlier work
# Chain of PSMA (Q04609 whole entry, species assumed): as the sequence (Q04609 whole entry) above
# [3] = tested on: PC3-Pip metastatic tumors; assay: Ex vivo organ biodistribution of [68Ga]PSMA-11 in PC3-Pip metastatic models after treatment; settings: Control mice (no 177Lu nanocarrier), individual mice
# [4] = tested on: PSMA+ PC3-Pip subcutaneous tumors; assay: Treatment study in PSMA+ PC3-Pip subcutaneous models; format: in vivo, mice; settings: 250 μCi single dose
# Method: The tumor measurements were carried out twice a week, and tumor volumes were calculated by formula V=[length×(width)^2]/2.
# [5] = tested on: PSMA+ PC3-Pip subcutaneous tumors; settings: prior literature; cited from earlier work
# [6] = tested on: prostate specific antigen; settings: patients receiving as low as 14 Gy tumor-absorbed dose; cited from earlier work
compound,measurement,setting,value
[N-]=[N+]=NCCCCCCOC(=O)NCCCC[C@H](NC(=O)N[C@@H](CCC(=O)O)C(=O)O)C(=O)O [Azido-ACUPA],IC50,"[1]; Table 2 Experiment 1, unlabeled",350 nM
same,IC50,"[1]; Table 10 Experiment 2, unlabeled",328 nM
O=C(O)CC[C@H](NC(=O)N[C@@H](CCCCNC(=O)Nc1ccc(I)cc1)C(=O)O)C(=O)O [PSMA-2],IC50,"[1]; Table 10 Experiment 1, unlabeled",25.5 nM
same,Ki,[2],0.24 nM
O=C([O-])CN(CCN(CC(=O)[O-])Cc1cc(CCC(=O)NCCCCCC(=O)NCCCC[C@H](NC(=O)N[C@@H](CCC(=O)O)C(=O)O)C(=O)O)ccc1[O-])Cc1cc(CCC(=O)O)ccc1[O-].[68Ga+3].[OH3+] [[^68Ga]PSMA-11],"[^68Ga]PSMA-11 ex vivo organ biodistribution, Blood",[3]; day 35,0.114 % ID/g and 0.2999 % ID/g and 0.08 % ID/g and 0.1 % ID/g and 0.06 % ID/Organ and 0.2029 % ID/Organ and 0.05813 % ID/Organ and 0.05324 % ID/Organ
same,"[^68Ga]PSMA-11 ex vivo organ biodistribution, Bone",[3]; day 35,0.335 % ID/g and 0.215 % ID/g and 0.2269 % ID/g and 0.3033 % ID/g and 0.08 % ID/Organ and 0.05419 % ID/Organ and 0.04439 % ID/Organ and 0.06845 % ID/Organ
same,"[^68Ga]PSMA-11 ex vivo organ biodistribution, Brain",[3]; day 35,0.046 % ID/g and 0.01371 % ID/g and 0.02404 % ID/g and 0.03404 % ID/g and 0.02 % ID/Organ and 0.004254 % ID/Organ and 0.009255 % ID/Organ and 0.01265 % ID/Organ
same,"[^68Ga]PSMA-11 ex vivo organ biodistribution, Heart",[3]; day 35,1.938 % ID/g and 1.093 % ID/g and 0.8842 % ID/g and 0.9371 % ID/g and 0.29 % ID/Organ and 0.1577 % ID/Organ and 0.1548 % ID/Organ and 0.1476 % ID/Organ
same,"[^68Ga]PSMA-11 ex vivo organ biodistribution, Large Int",[3]; day 35,0.663 % ID/g and 0.3338 % ID/g and 0.1292 % ID/g and 0.592 % ID/g and 0.09 % ID/Organ and 0.08014 % ID/Organ and 0.03072 % ID/Organ and 0.1919 % ID/Organ
same,"[^68Ga]PSMA-11 ex vivo organ biodistribution, Liver",[3]; day 35,0.855 % ID/g and 0.4054 % ID/g and 0.232 % ID/g and 0.289 % ID/g and 0.62 % ID/Organ and 0.2982 % ID/Organ and 0.1099 % ID/Organ and 0.2246 % ID/Organ
same,"[^68Ga]PSMA-11 ex vivo organ biodistribution, Lung",[3]; day 35,8.218 % ID/g and 1.814 % ID/g and 1.285 % ID/g and 1.336 % ID/g and 3.12 % ID/Organ and 0.2767 % ID/Organ and 0.1869 % ID/Organ and 0.2393 % ID/Organ
same,"[^68Ga]PSMA-11 ex vivo organ biodistribution, Muscle",[3]; day 35,0.414 % ID/g and 0.2044 % ID/g and 0.2192 % ID/g and 0.1624 % ID/g and 0.2 % ID/Organ and 0.05644 % ID/Organ and 0.04564 % ID/Organ and 0.04172 % ID/Organ
same,"[^68Ga]PSMA-11 ex vivo organ biodistribution, Pancreas",[3]; day 35,0.464 % ID/g and 0.2066 % ID/g and 0.2297 % ID/g and 0.5007 % ID/g and 0.04 % ID/Organ and 0.02448 % ID/Organ and 0.03206 % ID/Organ and 0.07795 % ID/Organ
same,"[^68Ga]PSMA-11 ex vivo organ biodistribution, Skin",[3]; day 35,3.25 % ID/g and 0.586 % ID/g and 0.9817 % ID/g and 0.4433 % ID/g and 1.08 % ID/Organ and 0.2667 % ID/Organ and 0.196 % ID/Organ and 0.2187 % ID/Organ
same,"[^68Ga]PSMA-11 ex vivo organ biodistribution, Small Int",[3]; day 35,0.29 % ID/g and 0.1397 % ID/g and 0.1663 % ID/g and 0.1479 % ID/g and 0.03 % ID/Organ and 0.02347 % ID/Organ and 0.03142 % ID/Organ and 0.02756 % ID/Organ
same,"[^68Ga]PSMA-11 ex vivo organ biodistribution, Splcon",[3]; day 35,22.586 % ID/g and 8.851 % ID/g and 8.108 % ID/g and 16.38 % ID/g
same,"[^68Ga]PSMA-11 ex vivo organ biodistribution, Spleen",[3]; day 35,1.34 % ID/Organ and 1.068 % ID/Organ and 0.7168 % ID/Organ and 1.253 % ID/Organ
same,"[^68Ga]PSMA-11 ex vivo organ biodistribution, Stomach",[3]; day 35,0.171 % ID/g and 0.3271 % ID/g and 0.1157 % ID/g and 0.09441 % ID/g and 0.16 % ID/Organ and 0.1002 % ID/Organ and 0.07062 % ID/Organ and 0.08055 % ID/Organ
same,"[^68Ga]PSMA-11 ex vivo organ biodistribution, Blood",[3]; day 50,0.212 % ID/g and 0.29 % ID/g and 0.207 % ID/g and 0.07 % ID/g and 0.13 % ID/Organ and 0.26 % ID/Organ and 0.14 % ID/Organ
same,"[^68Ga]PSMA-11 ex vivo organ biodistribution, Bone",[3]; day 50,0.398 % ID/g and 1.082 % ID/g and 0.335 % ID/g and 0.768 % ID/g and 0.06 % ID/Organ and 0.07 % ID/Organ and 0.05 % ID/Organ
same,"[^68Ga]PSMA-11 ex vivo organ biodistribution, Brain",[3]; day 50,0.037 % ID/g and 0.073 % ID/g and 0.024 % ID/g and 0.025 % ID/g and 0.01 % ID/Organ and 0.02 % ID/Organ
same,"[^68Ga]PSMA-11 ex vivo organ biodistribution, Heart",[3]; day 50,1.037 % ID/g and 1.182 % ID/g and 0.615 % ID/g and 0.906 % ID/g and 0.16 % ID/Organ and 0.09 % ID/Organ and 0.14 % ID/Organ and 0.18 % ID/Organ
same,"[^68Ga]PSMA-11 ex vivo organ biodistribution, Large Int",[3]; day 50,0.766 % ID/g and 0.402 % ID/g and 1.093 % ID/g and 1.205 % ID/g and 0.12 % ID/Organ and 0.06 % ID/Organ and 0.24 % ID/Organ and 0.25 % ID/Organ
same,"[^68Ga]PSMA-11 ex vivo organ biodistribution, Liver",[3]; day 50,2.351 % ID/g and 1.41 % ID/g and 0.215 % ID/g and 0.336 % ID/g and 3.36 % ID/Organ and 0.35 % ID/Organ and 0.3 % ID/Organ and 0.41 % ID/Organ
same,"[^68Ga]PSMA-11 ex vivo organ biodistribution, Lungs",[3]; day 50,4.185 % ID/g and 14.472 % ID/g and 1.403 % ID/g and 2.187 % ID/g and 0.55 % ID/Organ and 1.74 % ID/Organ and 0.19 % ID/Organ and 0.34 % ID/Organ
same,"[^68Ga]PSMA-11 ex vivo organ biodistribution, Muscle",[3]; day 50,0.335 % ID/g and 0.498 % ID/g and 0.405 % ID/g and 0.533 % ID/g and 0.04 % ID/Organ and 0.06 % ID/Organ and 0.11 % ID/Organ and 0.09 % ID/Organ
same,"[^68Ga]PSMA-11 ex vivo organ biodistribution, Pancreas",[3]; day 50,0.568 % ID/g and 0.668 % ID/g and 0.447 % ID/g and 0.649 % ID/g and 0.05 % ID/Organ and 0.07 % ID/Organ and 0.06 % ID/Organ
same,"[^68Ga]PSMA-11 ex vivo organ biodistribution, Skin",[3]; day 50,1.068 % ID/g and 2.397 % ID/g and 0.883 % ID/g and 0.807 % ID/g and 0.62 % ID/Organ and 0.6 % ID/Organ and 0.31 % ID/Organ and 0.33 % ID/Organ
same,"[^68Ga]PSMA-11 ex vivo organ biodistribution, Small Int",[3]; day 50,0.365 % ID/g and 0.631 % ID/g and 0.23 % ID/g and 0.289 % ID/g and 0.05 % ID/Organ and 0.09 % ID/Organ and 0.06 % ID/Organ and 0.07 % ID/Organ
same,"[^68Ga]PSMA-11 ex vivo organ biodistribution, Spleen",[3]; day 50,10.073 % ID/g and 86.889 % ID/g and 5.37 % ID/g and 8.812 % ID/g and 0.58 % ID/Organ and 1.25 % ID/Organ and 0.94 % ID/Organ and 1.1 % ID/Organ
same,"[^68Ga]PSMA-11 ex vivo organ biodistribution, Stomach",[3]; day 50,0.605 % ID/g and 0.424 % ID/g and 0.154 % ID/g and 0.107 % ID/g and 0.34 % ID/Organ and 0.17 % ID/Organ and 0.12 % ID/Organ and 0.11 % ID/Organ
O=C([O-])CN1CCN(CC(=O)[O-])CCN(CC(=O)NCC2CCC(C(=O)N[C@@H](Cc3ccc4ccccc4c3)C(=O)NCCCC[C@H](NC(=O)N[C@@H](CCC(=O)O)C(=O)O)C(=O)O)CC2)CCN(CC(=O)[O-])CC1.[177Lu+3] (stereo partly shown) [[^177Lu]PSMA-617],median survival,[4],46 days
same,median survival,[5],51 days
same,reduction of prostate specific antigen,[6],more than 50%
